Experimental findings from ChEMBL document CHEMBL3046340, “In silico studies on 2,3-dihydro-1,5-benzothiazepines as cholinesterase inhibitors” (Med Chem Res, 2012) are described below.

One experiment addresses Acetylcholinesterase (Electrophorus electricus, UniProt O42275). The experiment can be described thus: Inhibition of Electrophorus electricus (electric eel) acetylcholinesterase (AChE) using acetylthiocholine iodide as substrate preincubated for 15 min.
In the next experiment the target is Cholinesterase (Homo sapiens, UniProt P06276). The experiment can be described thus: Inhibition of BChE (unknown origin) using butyrylthiocholine chloride as substrate preincubated for 15 min.
Chain of Cholinesterase (P06276 whole entry): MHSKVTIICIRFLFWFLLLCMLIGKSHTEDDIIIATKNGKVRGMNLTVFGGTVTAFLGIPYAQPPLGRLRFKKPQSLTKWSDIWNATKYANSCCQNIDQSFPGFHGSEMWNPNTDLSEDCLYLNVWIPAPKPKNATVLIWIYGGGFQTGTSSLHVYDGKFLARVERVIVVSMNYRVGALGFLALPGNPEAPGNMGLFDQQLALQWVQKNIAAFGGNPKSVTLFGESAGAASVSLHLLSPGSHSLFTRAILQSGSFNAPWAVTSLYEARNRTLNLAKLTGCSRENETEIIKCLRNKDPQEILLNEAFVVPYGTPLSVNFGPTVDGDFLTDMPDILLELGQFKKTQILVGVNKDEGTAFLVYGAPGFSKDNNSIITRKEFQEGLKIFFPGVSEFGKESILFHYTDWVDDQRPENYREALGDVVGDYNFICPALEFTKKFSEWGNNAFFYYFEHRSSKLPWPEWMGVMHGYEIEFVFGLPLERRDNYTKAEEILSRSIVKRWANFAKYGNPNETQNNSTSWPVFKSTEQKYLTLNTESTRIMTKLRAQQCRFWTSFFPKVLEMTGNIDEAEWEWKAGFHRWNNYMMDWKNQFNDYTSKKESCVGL

Chain of Acetylcholinesterase (O42275 whole entry): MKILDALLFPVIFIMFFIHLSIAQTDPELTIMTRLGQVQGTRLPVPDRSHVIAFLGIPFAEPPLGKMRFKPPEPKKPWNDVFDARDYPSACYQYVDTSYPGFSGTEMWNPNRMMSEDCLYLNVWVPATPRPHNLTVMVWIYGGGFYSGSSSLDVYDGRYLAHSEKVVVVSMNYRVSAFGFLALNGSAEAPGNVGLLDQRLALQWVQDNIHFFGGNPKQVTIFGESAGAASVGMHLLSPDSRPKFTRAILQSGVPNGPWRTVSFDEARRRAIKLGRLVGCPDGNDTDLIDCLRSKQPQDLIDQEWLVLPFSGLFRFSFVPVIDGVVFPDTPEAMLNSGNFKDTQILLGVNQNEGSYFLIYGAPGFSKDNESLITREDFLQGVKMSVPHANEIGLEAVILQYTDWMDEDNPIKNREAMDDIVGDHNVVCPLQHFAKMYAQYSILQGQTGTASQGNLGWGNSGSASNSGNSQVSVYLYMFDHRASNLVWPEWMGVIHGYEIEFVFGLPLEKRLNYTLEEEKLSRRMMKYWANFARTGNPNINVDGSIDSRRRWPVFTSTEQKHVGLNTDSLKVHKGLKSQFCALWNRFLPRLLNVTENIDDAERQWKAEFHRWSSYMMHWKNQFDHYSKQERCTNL

For orientation: IC50 means the midpoint of a concentration-inhibition curve. As for `O=[N+]([O-])c1ccc(C2CC(c3ccccc3)=Nc3ccccc3S2)cc1` (configuration not stated), the IC50 at Acetylcholinesterase (read-out: IC50) amounted to 102 µM; at Cholinesterase (read-out: IC50), 60 µM.
As for `c1ccc(C2=Nc3ccccc3SC(c3ccccc3)C2)cc1` (configuration not stated), the IC50 result against Acetylcholinesterase and at Cholinesterase was “Not Active” in each case.
For `Cc1ccc(C2CC(c3ccccc3)=Nc3ccccc3S2)cc1` (configuration not stated), the IC50 result on Acetylcholinesterase and at Cholinesterase was “Not Active” in each case.
Take `COc1ccc(C2CC(c3ccccc3)=Nc3ccccc3S2)cc1OC` (configuration not stated): the IC50 entry at Acetylcholinesterase and at Cholinesterase was “Not Active” in each case.
For `Oc1ccccc1C1=Nc2ccccc2SC(c2ccccc2)C1` (configuration not stated), the IC50 result on Acetylcholinesterase and against Cholinesterase was “Not Active” throughout.
For `Oc1ccccc1C1=Nc2ccccc2SC(c2ccc(Cl)cc2)C1` (configuration not stated), the IC50 entry against Acetylcholinesterase and on Cholinesterase was “Not Active” each time.
In the case of `Oc1ccccc1C1=Nc2ccccc2SC(c2ccc(F)cc2)C1` (configuration not stated), the IC50 result against Acetylcholinesterase and against Cholinesterase was “Not Active” in each case.
As to `COc1cccc(C2CC(c3ccccc3O)=Nc3ccccc3S2)c1` (configuration not stated), the IC50 entry at Acetylcholinesterase and against Cholinesterase was “Not Active” throughout.
Regarding `COc1ccc(C2CC(c3ccccc3O)=Nc3ccccc3S2)cc1` (configuration not stated), the IC50 result on Acetylcholinesterase and on Cholinesterase was “Not Active” throughout.
Regarding `Cc1ccc(C2CC(c3ccccc3O)=Nc3ccccc3S2)cc1` (configuration not stated), the half-inhibitory concentration (IC50) entry at Acetylcholinesterase and at Cholinesterase was “Not Active” in each case.
As to `Oc1ccccc1C1=Nc2ccccc2SC(c2ccc3c(c2)OCO3)C1` (configuration not stated), the IC50 result against Acetylcholinesterase and at Cholinesterase was “Not Active” in each case.
In the case of `Oc1cccc(C2=Nc3ccccc3SC(c3ccccc3)C2)c1` (configuration not stated), the IC50 was 40 µM on Acetylcholinesterase (read-out: IC50) and 142 µM on Cholinesterase (read-out: IC50).
Turning to `COc1ccccc1C1CC(c2cccc(O)c2)=Nc2ccccc2S1` (configuration not stated), the IC50 result against Acetylcholinesterase was “Not Active”.
`COc1ccc(C2CC(c3cccc(O)c3)=Nc3ccccc3S2)cc1OC` (configuration not stated): the IC50 result against Acetylcholinesterase is “Not Active”.
For the compound `O=[N+]([O-])c1ccc(C2CC(c3cccc(O)c3)=Nc3ccccc3S2)cc1` (configuration not stated), the IC50 entry on Acetylcholinesterase and at Cholinesterase was “Not Active” each time.
In the case of `Cc1ccc(C2CC(c3cccc(O)c3)=Nc3ccccc3S2)cc1` (configuration not stated), the IC50 at Acetylcholinesterase (read-out: IC50) was 49.8 µM.
In the case of `Oc1cccc(C2=Nc3ccccc3SC(c3cccnc3)C2)c1` (configuration not stated), the IC50 result at Acetylcholinesterase and on Cholinesterase was “Not Active” throughout.
In the case of `Oc1cccc(C2=Nc3ccccc3SC(c3cccs3)C2)c1` (configuration not stated), the IC50 at Acetylcholinesterase (read-out: IC50) is 5.9 µM.
`Oc1cccc(C2=Nc3ccccc3SC(c3ccc(Cl)cc3)C2)c1` (configuration not stated): the results for the IC50 at Acetylcholinesterase (read-out: IC50) and on Cholinesterase (read-out: IC50) were 18.8 µM and 76.9 µM, respectively.
In the case of `CN(C)c1ccc(C2CC(c3cccc(O)c3)=Nc3ccccc3S2)cc1` (configuration not stated), the IC50 result against Acetylcholinesterase is on record as “Not Active”.
For the compound `Oc1cccc(C2=Nc3ccccc3SC(c3cccc(O)c3)C2)c1` (configuration not stated), the concentration for half-maximal inhibition (IC50) at Acetylcholinesterase (read-out: IC50) turned out to be 71.1 µM.
As to `Oc1cccc(C2=Nc3ccccc3SC(c3ccccc3Cl)C2)c1` (configuration not stated), the IC50 result against Acetylcholinesterase and against Cholinesterase was “Not Active” each time.
Consider `O=[N+]([O-])c1cccc(C2CC(c3cccc(O)c3)=Nc3ccccc3S2)c1` (configuration not stated), for which the half-inhibitory concentration (IC50) result against Acetylcholinesterase and against Cholinesterase was “Not Active” in each case.
Regarding `Oc1cccc(C2=Nc3ccccc3SC(c3cccc(Cl)c3)C2)c1` (configuration not stated), the IC50 entry at Acetylcholinesterase was “Not Active”.
As for `Oc1cccc(C2=Nc3ccccc3SC(c3ccccc3F)C2)c1` (configuration not stated), the half-maximal inhibitory concentration (IC50) is 70.6 µM at Acetylcholinesterase (read-out: IC50) and “Not Active” against Cholinesterase.
As for `Oc1ccc(C2CC(c3cccc(O)c3)=Nc3ccccc3S2)cc1` (configuration not stated), the IC50 entry against Acetylcholinesterase and on Cholinesterase was “Not Active” in each case.
As to `COc1cc(C2CC(c3cccc(O)c3)=Nc3ccccc3S2)ccc1O` (configuration not stated), the IC50 entry against Acetylcholinesterase and against Cholinesterase was “Not Active” throughout.
